Test results published in publication PMC8752759, “GSNOR regulates ganoderic acid content in Ganoderma lucidum under heat stress through S-nitrosylation of catalase” (Communications Biology, 2022).

How the values were obtained:
Assay type in all cases: biochemical
CAT (catalase) [1] = target: T1, CAT (catalase) (Ganoderma lucidum, UniProt A0A223M0M1, C671S); assay: biotin-switch immunoblot; CAT activity by H2O2 decomposition at […] nm; conditions: covalent; S-nitrosylation; room temperature, dark, 60 min
T1 construct: recombinant, pColdI vector, His-tagged, E. coli BL21(DE3), Ni-NTA purified; 6 cysteine residues
T1 sequence (A0A223M0M1 entry or part of it C671S): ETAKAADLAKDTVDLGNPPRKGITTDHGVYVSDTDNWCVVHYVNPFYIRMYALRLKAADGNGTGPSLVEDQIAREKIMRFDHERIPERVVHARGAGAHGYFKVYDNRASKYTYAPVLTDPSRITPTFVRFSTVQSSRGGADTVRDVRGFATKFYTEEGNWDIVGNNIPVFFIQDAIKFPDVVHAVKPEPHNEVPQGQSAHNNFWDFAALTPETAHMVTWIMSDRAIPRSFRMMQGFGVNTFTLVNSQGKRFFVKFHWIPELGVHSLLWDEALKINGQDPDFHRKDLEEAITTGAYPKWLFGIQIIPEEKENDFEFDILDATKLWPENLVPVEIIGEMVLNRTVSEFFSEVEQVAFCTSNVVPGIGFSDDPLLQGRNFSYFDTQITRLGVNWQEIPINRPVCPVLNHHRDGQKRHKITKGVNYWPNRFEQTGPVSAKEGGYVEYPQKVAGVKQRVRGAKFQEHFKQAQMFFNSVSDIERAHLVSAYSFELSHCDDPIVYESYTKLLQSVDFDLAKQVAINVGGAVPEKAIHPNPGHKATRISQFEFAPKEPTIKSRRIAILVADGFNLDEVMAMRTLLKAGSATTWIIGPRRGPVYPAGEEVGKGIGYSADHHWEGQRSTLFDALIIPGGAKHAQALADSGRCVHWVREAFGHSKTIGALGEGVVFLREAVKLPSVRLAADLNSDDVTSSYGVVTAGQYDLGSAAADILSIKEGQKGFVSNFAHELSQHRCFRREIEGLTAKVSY

CAT (catalase) [2] = target: T2, CAT (catalase) (Ganoderma lucidum, UniProt A0A223M0M1, C660S); assay: as above; conditions: covalent; S-nitrosylation; room temperature, dark, 60 min
T2 construct: recombinant, pColdI vector, His-tagged, E. coli BL21(DE3), Ni-NTA purified; 6 cysteine residues
T2 sequence (A0A223M0M1 entry or part of it C660S): as the sequence (A0A223M0M1 entry or part of it C671S) above, with C642S, S653C counted along it

CAT (catalase) [3] = target: T3, CAT (catalase) (Ganoderma lucidum, UniProt A0A223M0M1, C419S); assay: as above; conditions: covalent; S-nitrosylation; room temperature, dark, 60 min
T3 construct: recombinant, pColdI vector, His-tagged, E. coli BL21(DE3), Ni-NTA purified; 6 cysteine residues
T3 sequence (A0A223M0M1 entry or part of it C419S): as the sequence (A0A223M0M1 entry or part of it C671S) above, with C401S, S653C counted along it

CAT (catalase) [4] = target: T4, CAT (catalase) (Ganoderma lucidum, UniProt A0A223M0M1); assay: biotin-switch immunoblot, LC-MS/MS of sites; CAT activity by H2O2 decomposition at […] nm; conditions: covalent; S-nitrosylation at Cys401, Cys642, Cys653; room temperature, dark, 60 min; activating
T4 construct: recombinant, pColdI vector, His-tagged, E. coli BL21(DE3), Ni-NTA purified; 6 cysteine residues
T4 sequence (A0A223M0M1 entry or part of it): as the sequence (A0A223M0M1 entry or part of it C671S) above, with S653C counted along it

N[C@@H](CCC(=O)N[C@@H](CSN=O)C(=O)NCC(=O)O)C(=O)O [GSNO, S-nitrosoglutathione]
biotin-switch immunoblot; CAT activity by H2O2 decomposition at 240 nm (CAT (catalase) [1]): The C401S, C642S, and C653S single mutants
biotin-switch immunoblot; CAT activity by H2O2 decomposition at 240 nm (CAT (catalase) [2]): The C401S, C642S, and C653S single mutants
biotin-switch immunoblot; CAT activity by H2O2 decomposition at 240 nm (CAT (catalase) [3]): The C401S, C642S, and C653S single mutants
biotin-switch immunoblot, LC-MS/MS of sites; CAT activity by H2O2 decomposition (CAT (catalase) [4]): CAT was S-nitrosylated, which was induced by GSNO
